{"source": "patent US20160095867A1", "about": "“BET INHIBITION THERAPY FOR HEART DISEASE” (DANA-FARBER CANCER INSTITUTE, INC., priority 2013, published 2016)", "key": {"[1]": {"assay": "Treadmill endurance exercise capacity in mice", "type": "in vivo, mouse", "settings": "JQ1 50 mg/kg/day IP, 2-3 weeks (17 days)", "excerpt": "(§1) For transthoracic echocardiography, mice were anesthetized with 1% inhalational isofluorane and imaged using the Vevo 770 High Resolution Imaging System (Visual Sonics, Inc.) and the RMV-707B 30 MHz probe. Measurements were obtained from M-mode sampling and integrated EKV images taken in the LV short axis at the mid-papillary level (Haldar et al., 2010). Measurements of pressure gradients across the constricted portion of the aorta were obtained by high frequency Doppler as previously described (Liu et al., 2012). Conscious tail-vein systolic blood pressure was measured using the BP2000 Blood Pressure Analysis System (Visitech Systems, Inc.) as recommended by the manufacturer. To allow mice to adapt to the apparatus, we performed daily blood pressure measurements for one week prior to beginning experiments. Treadmill endurance exercise testing was performed on a motorized mouse treadmill (Columbus Instruments) as previously described (Haldar et al., 2012)."}, "[2]": {"system": "mice with myocardial infarction (MI)", "assay": "Large anterior wall myocardial infarction (permanent proximal LAD ligation) model", "type": "in vivo, mouse", "settings": "25 or 50 mg/kg/day IP from postoperative day 5", "protocol": "Mice were subjected to permanent proximal LAD ligation to create a large anterior wall myocardial infarction (MI). JQ1 or vehicle was begun at the indicated doses (25 mg/kg/day or 50 mg/kg/day, intraperitoneal injection) on postoperative day 5. […] JQ1 attenuates the development of (FIGS. 12B and 15B) LV systolic dysfunction, (FIGS. 12C and 15C) LV cavity dilation, (FIGS. 12D and 15D) LV wall thickening, and (FIGS. 12E and 15E) cardiomegaly after a large anterior wall myocardial infarction. (FIG. 12—N=5 per group; FIG. 15—N=5 in sham group, N=10 in MI group). […] After a myocardial infarction, abnormal remodeling of the heart occurs in distant areas of non-infarcted myocardium, leading to cardiac dilation, enlargement, and contractile dysfunction. This is a very common cause of heart failure. […] Neither this model nor the TAC models involve atherosclerosis. Therefore, the ability to protect the heart in these settings are unrelated to any effects on atherosclerosis."}, "mice subject to TAC": {"system": "mice subject to TAC", "assay": "Transverse aortic constriction (TAC) model, JQ1 begun 1.5 days after TAC", "type": "in vivo, mouse", "protocol": "JQ1 was synthesized and purified in the laboratory of Dr. James Bradner (DFCI) as previously published (Filippakopoulos et al., 2010). For in vivo experiments, a stock solution (50 mg/mL in DMSO) was diluted to a working concentration of 5 mg/mL in aqueous carrier (10% hydroxypropyl β-cyclodextrin; Sigma C0926) using vigorous vortexing. Mice were injected at a dose of 50 mg/kg given intraperitoneally once daily. Vehicle controls were given an equal amount of DMSO in carrier solution. All solutions were prepared and administered using sterile technique. For in vitro experiments, JQ1 and other BET inhibitors were dissolved in DMSO and administered to cells at indicated concentrations using an equal volume of DMSO as control. The BET inhibitors used were as follows: iBET, iBET-151, RVX-208, and PF-1.\n(§2) All mice were C57Bl/6J littermate males aged 10-12 weeks. For TAC, mice were anesthetized with ketamine/xylazine, mechanically ventilated (Harvard apparatus), and subject to thoracotomy. The aortic arch was constricted between the left and right carotid arteries using a 7.0 silk suture and a 27-gauge needle as previously described (Hu et al., 2003). In our hands, this protocol a consistent peak pressure gradient of approximately 50 mmHg across the constricted portion of the aorta. For PE infusion, mice were anesthetized using continuous 1% inhalational isofluorane. Mini-osmotic pumps (Alzet 2004, Durect Corp.) were filled with phenylephrine hydrochloride (PE, Sigma) or vehicle (normal saline) and implanted subcutaneously on the dorsal aspect of the mouse. PE was infused at a dose of 75 mg/kg/day for 17 days. Injections of JQ1 or vehicle were begun 1.5 days postoperatively.\nas §1\nShort-axis heart sections from the mid-ventricle were fixed in PBS/4% paraformaldehyde and embedded in paraffin. Cardiomyocyte cross sectional area was determined by staining with rhodamine-conjugated wheat-germ agglutinin (Vector Laboratories RL-1022) as quantified as previously described (Froese et al., 2011). Fibrosis was visualized using Masson's Trichrome staining kit (Biocare medical) with quantification of fibrotic area as previously described (Song et al., 2010). Terminal deoxynucleotidyl transferase dUTP nick-end label (TUNEL) staining and quantification was performed as previously described (Song et al., 2010) using the ApopTag Plus kit (Millipore) according to manufacturer's instructions. Myocardial capillary staining was performed in frozen LV sections using anti-PECAM-1 antibodies (EMD Millipore cat#CBL-1337) as previously described (Haldar et al., 2010)."}, "[3]": {"system": "primary Rat Aortic Smooth Muscle Cells (RASMC)", "assay": "PDGF-bb induced pathologic smooth muscle cell activation", "type": "cell-based", "settings": "JQ1 500 nM, PDGF-bb 10 ng/mL", "protocol": "All experiments were performed with primary Rat Aortic Smooth Muscle Cells (RASMC), PDGF-bb (10 ng/mL), and JQ1 (500 nM). JQ1 blocks hallmark features of pathologic smooth muscle activation in response to the agonist PDGF-bb such as (FIG. 14A) proliferation (quantified by radiolabeled thymidine incorporation), (FIG. 14B) migration (quantified using a Transwell migration assay), and (FIG. 14C) pathologic gene induction (qRT-PCR shown for Ptgs2/Cox2). These findings support the efficacy of BET bromodomain inhibition against pathologic smooth muscle growth (n=3-6 per group; *p<0.05 vs. vehicle; **p<0.05 vs. PDGF-bb)."}, "[4]": {"settings": "adult mice, 50 mg/kg/day; cited from earlier work"}, "[5]": {"assay": "Conscious tail-vein systolic blood pressure in mice", "type": "in vivo, mouse", "settings": "JQ1 50 mg/kg/day IP, 17 days", "excerpt": "as §1"}, "mice with PE infusion": {"system": "mice with PE infusion", "assay": "Chronic phenylephrine (PE) infusion model of cardiac hypertrophy", "type": "in vivo, mouse", "settings": "PE 75 mg/kg/day minipump, JQ1 from 1.5 days after installation", "excerpt": "as §2\nFor transthoracic echocardiography, mice were anesthetized with 1% inhalational isofluorane and imaged using the Vevo 770 High Resolution Imaging System (Visual Sonics, Inc.) and the RMV-707B 30 MHz probe. Measurements were obtained from M-mode sampling and integrated EKV images taken in the LV short axis at the mid-papillary level (Haldar et al., 2010). […] Conscious tail-vein systolic blood pressure was measured using the BP2000 Blood Pressure Analysis System (Visitech Systems, Inc.) as recommended by the manufacturer. […]"}, "[6]": {"settings": "JQ1 50 mg/kg/day IP from 1.5 days after TAC, out to 4 weeks"}}, "data": [{"smiles": "Cc1sc2c(c1C)C(c1ccc(Cl)cc1)=N[C@@H](CC(=O)OC(C)(C)C)c1nnc(C)n1-2", "note": "[JQ1]", "values": [{"measurement": "endurance exercise capacity (time to exhaustion)", "setting": "[1]", "result": "preserved endurance exercise capacity"}, {"measurement": "development of LV cavity dilation after MI", "setting": "[2]", "result": "attenuates"}, {"measurement": "development of LV systolic dysfunction after MI", "setting": "[2]", "result": "attenuates"}, {"measurement": "development of LV wall thickening after MI", "setting": "[2]", "result": "attenuates"}, {"measurement": "development of cardiomegaly after MI", "setting": "[2]", "result": "attenuates"}, {"measurement": "mortality, myocardial rupture, LV aneurysm formation vs. vehicle control", "setting": "[2]", "result": "No excess mortality, myocardial rupture, and LV aneurysm formation"}, {"measurement": "tolerability during TAC (activity, mortality, weight loss vs vehicle)", "setting": "mice subject to TAC; JQ1 50 mg/kg/day", "result": "well tolerated"}, {"measurement": "TAC-mediated LV cavity dilation (echocardiography)", "setting": "mice subject to TAC; [6]", "result": "protected against"}, {"measurement": "TAC-mediated LV systolic dysfunction (echocardiography)", "setting": "mice subject to TAC; [6]", "result": "protected against"}, {"measurement": "TAC-mediated LV wall thickening (echocardiography)", "setting": "mice subject to TAC; [6]", "result": "protected against"}, {"measurement": "pathologic cardiomegaly (HW/BW)", "setting": "mice subject to TAC; JQ1 50 mg/kg/day, 4 weeks TAC", "result": "inhibited"}, {"measurement": "pulmonary congestion (LW/BW)", "setting": "mice subject to TAC; JQ1 50 mg/kg/day, 4 weeks TAC", "result": "inhibited"}, {"measurement": "myocardial expression of canonical hypertrophic marker genes", "setting": "mice subject to TAC; JQ1 50 mg/kg/day, after TAC", "result": "inhibited"}, {"measurement": "effect on LV structure or function in sham treated mice", "setting": "mice subject to TAC; JQ1 50 mg/kg/day, sham surgery", "result": "no adverse effect"}, {"measurement": "TAC-mediated induction of c-Myc expression in vivo", "setting": "mice subject to TAC; TAC mouse hearts, qRT-PCR", "result": "no effect"}, {"measurement": "evolution of pathological gene expression program in the heart (microarray GEP)", "setting": "mice subject to TAC; TAC, 3, 11 and 28 days", "result": "suppressed"}, {"measurement": "apoptotic cell death (TUNEL)", "setting": "mice subject to TAC; heart tissue, 4 weeks of TAC", "result": "significantly attenuated"}, {"measurement": "capillary rarefaction (PECAM-1)", "setting": "mice subject to TAC; heart tissue, 4 weeks of TAC", "result": "significantly attenuated"}, {"measurement": "development of cardiomyocyte hypertrophy (wheat germ agglutinin, cardiomyocyte area)", "setting": "mice subject to TAC; heart tissue, 4 weeks of TAC", "result": "significantly attenuated"}, {"measurement": "myocardial fibrosis (Masson's Trichrome)", "setting": "mice subject to TAC; heart tissue, 4 weeks of TAC", "result": "significantly attenuated"}, {"measurement": "PDGF-bb induced migration (Transwell migration assay)", "setting": "[3]", "result": "blocks"}, {"measurement": "PDGF-bb induced pathologic gene induction (qRT-PCR, Ptgs2/Cox2)", "setting": "[3]", "result": "blocks"}, {"measurement": "PDGF-bb induced proliferation (radiolabeled thymidine incorporation)", "setting": "[3]", "result": "blocks"}, {"measurement": "toxicity on chronic administration", "setting": "[4]", "result": "without significant toxicity"}, {"measurement": "systemic blood pressure", "setting": "[5]", "result": "does not affect"}, {"measurement": "LV systolic function during chronic PE infusion", "setting": "mice with PE infusion", "result": "without any compromise"}, {"measurement": "development of pathologic cardiac hypertrophy during chronic PE infusion", "setting": "mice with PE infusion", "result": "potently suppressed"}]}]}
